How the values were obtained:
[1] = test system: Core promoter reporter with DR1, DR4 or DR12 nuclear hormone response element in Sf9 cells; assay: Sf9 cell transfection assay: methyl epoxyfarnesoate activation of DR-enhancer/Core promoter luciferase reporter; format: cell-based, Spodoptera frugiperda; conditions: transfected Sf9 cells, 75 μm methyl epoxyfarnesoate
Protocol: Spodoptera frugiperda cell line, Sf9, was maintained and transfected as described previously Jones et al (1998) Biochem. J. 335, 79-84; Jones et al. (2000) Biochem. J. 346, 233-240. As an internal control to compare activities of different constructs, 0.3 μg of a constituitive heat-shock promoter-driven β-galactosidase gene was cotransfected. To study the role of USP in activation of the nuclear hormone receptor response element fused to core promoter in methyl epoxyfarnesoate-treated cells, cloned D. melangaster USP (dUSP) cDNA and its derivatives containing mutations in the ligand-binding pocket were cotransfected with the reporter and internal control plasmids. […] After 48 h of the treatment, the cells were harvested and the activity of the luciferase reporter was measured using a luciferase assay kit (Promega) in a multipurpose scintillation counter (Beckman, Fullerton, Calif.). β-Galactosidase activity was measured using chlorophenol red-[…] monosodium (CPRG; Roche Molecular Biochemicals) as a colorimetric substrate.
The sequences and characteristics of the core promoter ([…]) of the JHE gene were described by Jones et al. (2001) Insect Biochem. Mol. Biol. 32, 33-49; Jones et al (1998) Biochem. J. 335, 79-84; 79-84; Jones et al. (2000) Biochem. J. 346, 233-240. The core promoter responds to respond to methyl epoxyfarnesoate through a heterologous 5′ flanking direct repeat motif in cell transfection assay. This Core promoter reporter was cloned into KpnI/BglII sites of pGL3. An NheI site was then placed immediately 5′ to the KpnI site, and multiple direct repeat (DR) sequences were cloned into the NheI site by the following method. […] Upon annealing, the double stranded oligonucleotides would then have a CTAG overhang at each 5′ end. The annealed oligonucleotides were then ligated into concatamers, fractionated by native PAGE and the gel fractions corresponding to higher concatamer forms recovered and ligated into the NheI site. Specific DR sequences for the oligonucleotides were (upper strand) for DR1: 5′-CAAGGTCAAAGGTCAG-3′ (SEQ ID NO: 13), for DR4: 5′-CAAGGTCAAGAAAGGTCAG-3′ (SEQ ID NO: 14), for DR12: 5′-[…]-3′ (SEQ ID NO: 15; CTAG on 5′ ends not shown). The recovered YDRXCore constructs (X representing 1, 4 or 12 intervening bases; Y representing the number of tandem pairs of direct repeats) were verified by sequencing. The intervening sequences in the DR1 and DR4 motifs were randomly chosen, while the DR12 sequence used is found in the ecdysteroid-sensitive ng-1 and ng-2 genes that are expressed during metamorphosis of D. melanogaster, and can serve in vitro as a binding site for the various receptor dimers involving USP (ecdysteroid receptor (EcR)/USP heterodimer, USP/DHR38 heterodimer and USP/USP homodimer. […]

[2] = test system: Core promoter reporter with DR1, DR4 or DR12 nuclear hormone response element in Sf9 cells; conditions: previous studies; cited from earlier work
C472A/H475L mutant dUSP = biological target: T1, C472A/H475L mutant dUSP (Drosophila melanogaster, UniProt P20153, C472A/H475L); assay: Intrinsic tryptophan fluorescence ligand-binding assay, C472A/H475L mutant dUSP; conditions: 75 μm ligand; excitation 290 nm, emission 340 nm
T1 construct: His tag; made in house; host or cells: bacteria (pET32EK vector)
T1 sequence (P20153 whole entry C472A/H475L): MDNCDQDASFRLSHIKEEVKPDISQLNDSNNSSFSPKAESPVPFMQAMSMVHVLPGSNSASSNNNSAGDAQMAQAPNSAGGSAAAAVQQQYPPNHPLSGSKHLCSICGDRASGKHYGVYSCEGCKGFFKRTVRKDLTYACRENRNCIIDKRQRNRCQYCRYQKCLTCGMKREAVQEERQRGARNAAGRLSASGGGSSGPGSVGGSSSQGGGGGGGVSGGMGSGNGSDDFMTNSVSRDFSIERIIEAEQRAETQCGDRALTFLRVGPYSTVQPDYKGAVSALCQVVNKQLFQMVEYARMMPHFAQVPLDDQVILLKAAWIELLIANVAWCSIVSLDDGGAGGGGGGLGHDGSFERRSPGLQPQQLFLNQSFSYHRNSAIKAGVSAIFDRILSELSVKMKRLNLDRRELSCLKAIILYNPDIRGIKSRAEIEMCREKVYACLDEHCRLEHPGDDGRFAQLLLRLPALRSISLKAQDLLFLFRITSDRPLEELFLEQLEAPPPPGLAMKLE
Protocol: (§1) The homodimer-enriched fraction of bacterial recombinant His-dUSP fusion protein was purified by nickel resin selection, elution with imidazole, centrifugal concentration, and then gel permeation chromatography (Superdex 200) with procedures and chemical sources exactly as already described previously Jones et al. (2000) Insect Biochem. Mol. Biol. 30, 671-679. The homodimer-enriched fraction of the purified His-USP fusion protein was raised to 2 ml of NaCl and a final concentration of 0.5 μm. For a fluorescence-based ligand-binding assay based on intrinsic tryptophan fluorescence Jones et al. (2001) Insect Biochem. Mol. Biol. 32, 33-49; Jones et al (1998) Biochem. J. 335, 79-84; 79-84; Jones et al. (2000) Biochem. J. 346, 233-240; Jones et al (1997) Proc. Natl. Acad. Sci. USA 94, 13499-13503, ligand or ethanol carrier was added and the receptor preparation excited at 290 nm and monitored for emission at 340 nm, until the signal from the receptor had stabilized. Fluorescence was measured three times for each sample, with standard deviation typically smaller than the graphical plotted datum point. Each fluorescence experiment was replicated on three or more independent occasions, each time with similar results.
(§2) The ability of the wild-type dUSP and dominant negative, ligand-binding pocket mutant dUSP to bind methyl epoxyfarnesoate was tested.

[3] = biological target: T2, His-tagged wild-type dUSP (Drosophila melanogaster, UniProt P20153); assay: Intrinsic tryptophan fluorescence ligand-binding assay, wild-type dUSP; conditions: excitation 290 nm, emission 340 nm, 0.5 μm receptor
T2 construct: His tag; made in house; host or cells: bacteria (pET32EK vector)
T2 sequence (P20153 1-508): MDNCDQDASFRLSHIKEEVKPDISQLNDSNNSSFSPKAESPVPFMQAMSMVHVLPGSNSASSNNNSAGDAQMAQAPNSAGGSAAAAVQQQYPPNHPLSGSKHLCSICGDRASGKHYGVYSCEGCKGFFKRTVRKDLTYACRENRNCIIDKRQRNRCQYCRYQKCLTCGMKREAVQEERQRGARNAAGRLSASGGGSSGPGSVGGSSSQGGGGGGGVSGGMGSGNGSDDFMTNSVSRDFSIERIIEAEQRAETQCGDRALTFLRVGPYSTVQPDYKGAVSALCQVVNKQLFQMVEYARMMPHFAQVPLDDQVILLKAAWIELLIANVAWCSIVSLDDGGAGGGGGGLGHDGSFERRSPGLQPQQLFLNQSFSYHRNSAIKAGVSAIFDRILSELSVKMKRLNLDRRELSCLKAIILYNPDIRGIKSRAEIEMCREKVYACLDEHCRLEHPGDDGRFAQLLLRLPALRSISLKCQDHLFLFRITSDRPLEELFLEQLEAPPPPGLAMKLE
Protocol: as §1, §2

P498W/P499W mutant USP = biological target: T3, P498W/P499W mutant USP (Drosophila melanogaster, UniProt P20153, P498W/P499W); assay: Intrinsic tryptophan fluorescence ligand-binding assay, P498W/P499W mutant USP; conditions: excitation 290 nm, emission 340 nm
T3 construct: His tag; made in house; host or cells: bacteria (pET32EK vector)
T3 sequence (P20153 whole entry P498W/P499W): as the sequence (P20153 whole entry C472A/H475L) above, with A472C, L475H, P498W, P499W counted along it
Protocol: as §1, with “results. […]” for “results.”

COC(=O)C=C(C)CCC=C(C)CCC1OC1(C)C (stereo not drawn) [methyl epoxyfarnesoate]
induction in promoter activity, four tandem copies of DR1 motif [1]: 2.5 fold | induction in promoter activity, four tandem copies of DR4 motif [1]: 3.5 fold | responsiveness of 1DR12mutCore (both DR12 half sites mutated) [1]: no greater than the background of a Core promoter with no enhancer | induction in promoter activity, 4DR12Core construct ([1]; four tandem DR12 motifs): 10 fold | concentration of maximum effect (dose dependent) [2]: ~75 μm | effect on receptor intrinsic fluorescence (ligand binding), C472A/H475L mutant dUSP (C472A/H475L mutant dUSP): did not exhibit a significant response | effect on receptor intrinsic fluorescence (ligand binding), wild-type dUSP [3]: suppressed the fluorescence | effect on receptor intrinsic fluorescence (ligand binding), wild-type dUSP ([3]; listed as Methyl epoxyfarnesoate): suppression of receptor fluorescence | effect on receptor intrinsic fluorescence, P498W/P499W mutant USP (P498W/P499W mutant USP): sharply increasing in fluorescence before then decreasing
